Laboratory results taken from ChEMBL document CHEMBL3400100, “Streptococcus mutans sortase A inhibitory metabolites from the flowers of Sophora japonica” (Bioorg Med Chem Lett, 2015).

Legend:
[1] = system: Streptococcus mutans; assay: Toxicity against Streptococcus mutans assessed as inhibition of microbial growth; format: organism-based; conditions: in vitro
[2] = Inhibition of Streptococcus mutans OMZ65 sortase A lacking N-terminal membrane anchor domain (1 to 40 amino acids) expressed in Escherichia coli TOP10 using Dabcyl-QALPETGEE-Edans substrate incubated for 1 hr by fluorescence spectrophotometry
[3] = system: Streptococcus mutans; assay: Inhibition of sortase A in Streptococcus mutans NG8 assessed as reduction in saliva-induced bacterial aggregation at 58.6 to 234.4 uM by spectrophotometry

Row | IC50 [2] | inhibition [3] | Compound | MIC [1]
1 | 58.6 µM | Dose-dependent effect | Cc1occc(=O)c1O[C@@H]1O[C@H](COC(=O)CC(C)(O)CC(=O)O)[C@@H](OC(=O)/C=C\c2ccc(O)cc2)[C@H](O)[C@H]1O (some centres not stated) | > 345.9 µM
2 | 94.3 µM | – | Cc1occc(=O)c1O[C@@H]1O[C@H](COC(=O)CC(C)(O)CC(=O)O)[C@@H](OC(=O)/C=C/c2ccc(O)cc2)[C@H](O)[C@H]1O (some centres not stated) | > 345.9 µM
3 | 91.5 µM | – | COc1cc(/C=C/C(=O)CC(=O)/C=C/c2ccc(O)c(OC)c2)ccc1O [CURCUMIN] | > 542.9 µM
4 | 62.1 µM | – | COc1cc(-c2oc3cc(O)cc(O)c3c(=O)c2O[C@@H]2O[C@H](CO[C@@H]3O[C@@H](C)[C@H](O)[C@@H](O)[C@H]3O)[C@@H](O)[C@H](O)[C@H]2O)ccc1O [NARCISSIN] | > 320.2 µM
5 | 60.7 µM | – | C[C@@H]1O[C@@H](OC[C@H]2O[C@@H](Oc3c(-c4ccc(O)cc4)oc4cc(O)cc(O)c4c3=O)[C@H](O)[C@@H](O)[C@@H]2O)[C@H](O)[C@H](O)[C@H]1O [NICOTIFLOROSIDE] | > 336.4 µM

Row | Compound | IC50 [2] | inhibition [3] | MIC [1]
6 | Para-Hydroxymercuribenzoic acid | 112 µM | – | –
